Experiments:
Test in all cases: viability inhibition at highest dose (% inhibition); higher = more growth inhibition
BT-474 Tam1 = settings: 4-OH-tamoxifen in medium 1 µM; 72 h
Experimental: (§1)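 Percent inhibition of viability (CellTiter-Glo, 72 h) at the highest tested concentration (D5), normalised to DMSO (0%) and 100 µM benzethonium chloride (100%). Resistant lines and the 'in 1µM tamoxifen' arms were tested in 1 µM 4-OH-tamoxifen.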

BT-474 Tam2 = settings: 4-OH-tamoxifen in medium 1 µM; 72 h
Experimental: as §1

BT-474 = settings: 72 h
Experimental: as §1

MCF-7 Tam1 = settings: 4-OH-tamoxifen in medium 1 µM; 72 h
Experimental: as §1

MCF-7 = settings: 72 h
Experimental: as §1

T-47D Tam1 = settings: 4-OH-tamoxifen in medium 1 µM; 72 h
Experimental: as §1

T-47D Tam2 = settings: 4-OH-tamoxifen in medium 1 µM; 72 h
Experimental: as §1

T-47D = settings: 72 h
Experimental: as §1

ZR-75-1 Tam1 = settings: 4-OH-tamoxifen in medium 1 µM; 72 h
Experimental: as §1

ZR-75-1 Tam2 = settings: 4-OH-tamoxifen in medium 1 µM; 72 h
Experimental: as §1

ZR-75-1 = settings: 72 h
Experimental: as §1

Row | Structure (SMILES) | viability inhibition at highest dose (BT-474 Tam1) | viability inhibition at highest dose (BT-474 Tam2) | viability inhibition at highest dose (BT-474; 4-OH-tamoxifen in medium 0 µM) | viability inhibition at highest dose (BT-474; 4-OH-tamoxifen in medium 1 µM) | viability inhibition at highest dose (MCF-7 Tam1) | viability inhibition at highest dose (MCF-7; 4-OH-tamoxifen in medium 0 µM) | viability inhibition at highest dose (MCF-7; 4-OH-tamoxifen in medium 1 µM) | viability inhibition at highest dose (T-47D Tam1) | viability inhibition at highest dose (T-47D Tam2) | viability inhibition at highest dose (T-47D; 4-OH-tamoxifen in medium 0 µM) | viability inhibition at highest dose (T-47D; 4-OH-tamoxifen in medium 1 µM) | viability inhibition at highest dose (ZR-75-1 Tam1) | viability inhibition at highest dose (ZR-75-1 Tam2) | viability inhibition at highest dose (ZR-75-1; 4-OH-tamoxifen in medium 0 µM) | viability inhibition at highest dose (ZR-75-1; 4-OH-tamoxifen in medium 1 µM)
1 | COc1cc2c(cc1O)CC[C@@H]1[C@@H]2CC[C@]2(C)[C@@H](O)CC[C@@H]12 [2-methoxyestradiol  (Panzem)] (drug 10000 nM) | 27.1 | 24.3 | 48.9 | 63.3 | -11.2 | 24.8 | 17.7 | 24.5 | 29.8 | 32.6 | -2.41 | 6.41 | 3.21 | 36.8 | 2.3
2 | COc1cc(F)c(F)c(Nc2ccc(I)cc2F)c1NS(=O)(=O)C1(C[C@H](O)CO)CC1 [Refametinib (RDEA119)] (drug 10000 nM) | 36.3 | 14 | 9.83 | 54.3 | 33.1 | 44.2 | 39.9 | 31.2 | 22 | 24.3 | 12.7 | 8.84 | 10.6 | 20.6 | 14.9
3 | Cn1c(Nc2ccc(C(F)(F)F)cc2)nc2cc(Oc3ccnc(-c4ncc(C(F)(F)F)[nH]4)c3)ccc21 [RAF265] (drug 1000 nM) | 4.22 | 9 | -9.23 | 7.76 | -5.31 | -2.02 | -1.12 | 22.5 | 2.98 | 12.4 | -5.82 | -1.02 | 11.6 | 2.38 | -4.76
4 | Cc1cc(C(C)Nc2ccccc2)c2nc(N3CCOCC3)cc(=O)n2c1 (stereo not given) [TGX-221] (drug 10000 nM) | 29 | 42.5 | 9.95 | 25.3 | 9.33 | 21.3 | 25.4 | 12.4 | 15.9 | 8.41 | 24.1 | 49 | 51.8 | 52 | 45.3
5 | CC[C@@H]1C(=O)OC[C@@H]1Cc1cncn1C [Pilocarpine] (drug 40000 nM) | 4.36 | 6.51 | -0.744 | -6.73 | -6.84 | -3.51 | 9.03 | -0.157 | 9.72 | -7.15 | -0.389 | 8.48 | -0.127 | -3.18 | -6.19
6 | O=C(O)CC[C@H]1CC[C@@](c2cc(F)ccc2F)(S(=O)(=O)c2ccc(Cl)cc2)CC1 [MK-0752] (drug 1000 nM) | -7.32 | 2.64 | -9.96 | -12.2 | -0.531 | -24.6 | 1.59 | 2.67 | 4.08 | -16.2 | -1.71 | -3.02 | -2.73 | -11.9 | -13.3
7 | COc1cc(Nc2c(C#N)cnc3cc(OCCCN4CCN(C)CC4)c(OC)cc23)c(Cl)cc1Cl [Bosutinib] (drug 10000 nM) | 96.4 | 95 | 83.1 | 95 | 50.7 | 81.6 | 78.4 | 72 | 77.5 | 41.6 | 66.7 | 22.6 | 57.5 | 17.9 | 28.8
8 | Cc1cc(Nc2cc(CN3CCOCC3)c3nc(C)c(Cc4ccc(Cl)cc4F)n3n2)n[nH]1 (drug 10000 nM) | 96.7 | 96.4 | 5.76 | 66.4 | 47.8 | 66.7 | 68 | 45.6 | 46.2 | 21.2 | 24.4 | -2.02 | 16.8 | -23.2 | 0.926
9 | C[C@@H]1CCN(C(=O)CC#N)C[C@@H]1N(C)c1ncnc2[nH]ccc12 [Tofacitinib (Tasocitinib)] (drug 5000 nM) | -11.1 | -10.5 | 0.0745 | -12.8 | 1.13 | -15.3 | 12.9 | -1.37 | -13.3 | 3.16 | -4.5 | 4.16 | 10.5 | -2.74 | -1.91
10 | NC(=O)c1ccc(I)c([N+](=O)[O-])c1 (drug 10000 nM) | -6.12 | -6.48 | 3.04 | -11 | 2 | 2.33 | -5.76 | 7.73 | 14.7 | -4.63 | -1.38 | 7.66 | -0.492 | -1.66 | 4.93
11 | C/C(=C\c1csc(C)n1)[C@@H]1C[C@@H]2O[C@]2(C)CCC[C@H](C)[C@H](O)[C@@H](C)C(=O)C(C)(C)[C@@H](O)CC(=O)O1 [Patupilone  (Epothilone B)] (drug 1000 nM) | 38.2 | 28 | 49.2 | 56.4 | -9.25 | 24.1 | 21.5 | 22 | 33.4 | 38.1 | 8.65 | 1.36 | 1.47 | 8.28 | -8.45
12 | O=C(c1cc(Cc2n[nH]c(=O)c3ccccc23)ccc1F)N1CCN(C(=O)C2CC2)CC1 [Olaparib] (drug 10000 nM) | 11.7 | 6.64 | -3.98 | -18.1 | -1.72 | -12.5 | 18 | 3.42 | 13.8 | 10.8 | 0.545 | 9.56 | 6.09 | 2.83 | -2.23
13 | O=C1c2c(O)ccc(O)c2C(=O)c2c(NCCNCCO)ccc(NCCNCCO)c21 [Mitoxantrone] (drug 1000 nM) | -23.8 | -13.6 | 3.96 | -1.95 | 1.72 | -3.19 | 7.73 | 47.8 | 21.5 | 29.5 | 2.9 | 21.3 | 24.9 | 29.7 | 20.2

Reference: the supplement of paper PMC4932681
